According to patent US20250144094A1 (Erasca, Inc., priority 2021, published 2025):

Target: Recombinant human ULK1 (1-649) (Homo sapiens (Human), UniProt O75385)
Assay: ULK1 ADP Glo kinase activity assay, new method (ULKtide peptide substrate)
Settings: 25° C., 40 minutes, read-out: ULK1 biochemical IC50
Outline: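 Kinase activity was read as ADP production (ADP-Glo, luminescence 30 min after detection reagent) following a 40-min, 25 °C reaction of Sf9-expressed GST-ULK1 (1-649) with ULKtide substrate and ATP. Compounds ran as 12-point series starting at 10 μM; four-parameter curve fitting versus DMSO wells gave IC50.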

Chain of Recombinant human ULK1 (1-649) (O75385 1-649): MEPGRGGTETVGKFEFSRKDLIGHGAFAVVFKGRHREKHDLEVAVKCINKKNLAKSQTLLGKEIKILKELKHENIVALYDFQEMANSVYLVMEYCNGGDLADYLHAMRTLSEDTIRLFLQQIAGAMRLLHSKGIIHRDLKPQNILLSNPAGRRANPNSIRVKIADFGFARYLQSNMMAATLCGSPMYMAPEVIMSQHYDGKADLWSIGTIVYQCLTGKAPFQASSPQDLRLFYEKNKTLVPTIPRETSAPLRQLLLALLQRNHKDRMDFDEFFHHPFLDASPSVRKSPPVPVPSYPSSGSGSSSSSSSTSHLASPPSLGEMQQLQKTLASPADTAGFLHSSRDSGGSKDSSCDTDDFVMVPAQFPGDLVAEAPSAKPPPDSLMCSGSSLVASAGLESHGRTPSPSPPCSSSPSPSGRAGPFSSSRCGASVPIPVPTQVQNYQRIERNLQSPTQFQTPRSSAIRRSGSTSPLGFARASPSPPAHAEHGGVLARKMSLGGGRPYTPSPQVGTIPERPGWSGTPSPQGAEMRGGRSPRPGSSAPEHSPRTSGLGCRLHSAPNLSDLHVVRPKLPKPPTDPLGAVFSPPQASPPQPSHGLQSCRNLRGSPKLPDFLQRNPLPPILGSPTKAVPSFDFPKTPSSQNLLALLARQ

Structure (SMILES)	IC50
CCc1cc(N2C[C@@H]3C[C@H]2CN3C)ccc1Nc1ncc(C(F)(F)F)c(-c2cc3c(s2)C(=O)N(C2COC2)CCS3(=O)=O)n1 [Example 346, 7-(2-((2-Ethyl-4-((1S,4S)-5-methyl-2,5-diazabicyclo[2.2.1]heptan-2-yl)phenyl)amino)-5-(trifluoromethyl)pyrimidin-4-yl)-4-(oxetan-3-yl)-3,4-dihydrothieno[2,3-f][1,4]thiazepin-5(2H)-one 1,1-dioxide]	5 to 10 nM
CCc1cc(N2C[C@H]3C[C@@H]2CN3C)ccc1Nc1ncc(C(F)(F)F)c(-c2cc3c(s2)C(=O)N(C2COC2)CCS3(=O)=O)n1 [Example 347, 7-(2-((2-ethyl-4-((1R,4R)-5-methyl-2,5-diazabicyclo[2.2.1]heptan-2-yl)phenyl)amino)-5-(trifluoromethyl)pyrimidin-4-yl)-4-(oxetan-3-yl)-3,4-dihydrothieno[2,3-f][1,4]thiazepin-5(2H)-one 1,1-dioxide]	≤ 5 nM
CCc1cc(N2C[C@H]3CC[C@@H](C2)N3C)ccc1Nc1ncc(C(F)(F)F)c(-c2cc3c(s2)C(=O)N(C2COC2)CCS3(=O)=O)n1 [Example 348, 7-(2-((2-ethyl-4-((1R,5S)-8-methyl-3,8-diazabicyclo[3.2.1]octan-3-yl)phenyl)amino)-5-(trifluoromethyl)pyrimidin-4-yl)-4-(oxetan-3-yl)-3,4-dihydrothieno[2,3-f][1,4]thiazepin-5(2H)-one 1,1-dioxide]	≤ 5 nM
CN1C2CC1CN(c1ccc(Nc3ncc(C(F)(F)F)c(-c4cc5c(s4)C(=O)N(C4COC4)CCS5(=O)=O)n3)c(C3CC3)c1)C2 [Example 349, 7-(2-((2-cyclopropyl-4-(6-methyl-3,6-diazabicyclo[3.1.1]heptan-3-yl)phenyl)amino)-5-(trifluoromethyl)pyrimidin-4-yl)-4-(oxetan-3-yl)-3,4-dihydrothieno[2,3-f][1,4]thiazepin-5(2H)-one 1,1-dioxide]	≤ 5 nM
C[C@@H]1CN(c2ccc(Nc3ncc(C(F)(F)F)c(-c4cc5c(s4)C(=O)N(C4COC4)CCS5(=O)=O)n3)c(C3CC3)c2)C[C@H](C)N1 [Example 350, 7-(2-((2-cyclopropyl-4-((3S,5R)-3,5-dimethylpiperazin-1-yl)phenyl)amino)-5-(trifluoromethyl)pyrimidin-4-yl)-4-(oxetan-3-yl)-3,4-dihydrothieno[2,3-f][1,4]thiazepin-5(2H)-one 1,1-dioxide]	≤ 5 nM
C[C@H]1CN(c2ccc(Nc3ncc(C(F)(F)F)c(-c4cc5c(s4)C(=O)N(C4COC4)CCS5(=O)=O)n3)c(C3CC3)c2)C[C@H](C)N1C [Example 351, 7-(2-((2-cyclopropyl-4-((3S,5S)-3,4,5-trimethylpiperazin-1-yl)phenyl)amino)-5-(trifluoromethyl)pyrimidin-4-yl)-4-(oxetan-3-yl)-3,4-dihydrothieno[2,3-f][1,4]thiazepin-5(2H)-one 1,1-dioxide]	5 to 10 nM
CN1CCN(c2ccc(Nc3ncc(C(F)(F)F)c(-c4cc5c(s4)C(=O)N(C4CC4)CCS5(=O)=O)n3)c(C3CC3)c2)C[C@@H]1CO [Example 352, (R)-4-cyclopropyl-7-(2-((2-cyclopropyl-4-(3-(hydroxymethyl)-4-methylpiperazin-1-yl)phenyl)amino)-5-(trifluoromethyl)pyrimidin-4-yl)-3,4-dihydrothieno[2,3-f][1,4]thiazepin-5(2H)-one 1,1-dioxide]	≤ 5 nM
CCc1cc(N2CCN[C@@H](C)C2)ccc1Nc1ncc(C(F)(F)F)c(-c2cc3c(s2)C(=O)N(C2CC2)CCS3(=O)=O)n1 [Example 353, (S)-4-cyclopropyl-7-(2-((2-ethyl-4-(3-methylpiperazin-1-yl)phenyl)amino)-5-(trifluoromethyl)pyrimidin-4-yl)-3,4-dihydrothieno[2,3-f][1,4]thiazepin-5(2H)-one 1,1-dioxide]	≤ 5 nM
CCc1cc(N2CCN[C@@H](C)C2)ccc1Nc1ncc(C(F)(F)F)c(-c2cc3c(s2)C(=O)N(C2COC2)CCS3(=O)=O)n1 [Example 354, (S)-7-(2-((2-ethyl-4-(3-methylpiperazin-1-yl)phenyl)amino)-5-(trifluoromethyl)pyrimidin-4-yl)-4-(oxetan-3-yl)-3,4-dihydrothieno[2,3-f][1,4]thiazepin-5(2H)-one 1,1-dioxide]	≤ 5 nM
CCc1cc(N2CCN[C@@H](CO)C2)ccc1Nc1ncc(C(F)(F)F)c(-c2cc3c(s2)C(=O)N(C2COC2)CCS3(=O)=O)n1 [Example 355, (R)-7-(2-((2-ethyl-4-(3-(hydroxymethyl)piperazin-1-yl)phenyl)amino)-5-(trifluoromethyl)pyrimidin-4-yl)-4-(oxetan-3-yl)-3,4-dihydrothieno[2,3-f][1,4]thiazepin-5(2H)-one 1,1-dioxide]	≤ 5 nM
CCc1cc(N2C[C@H](C)N[C@@H](C)C2)ccc1Nc1ncc(C(F)(F)F)c(-c2cc3c(s2)C(=O)N(C2CC2)CCS3(=O)=O)n1 [Example 356, 4-cyclopropyl-7-(2-((4-((3S,5S)-3,5-dimethylpiperazin-1-yl)-2-ethylphenyl)amino)-5-(trifluoromethyl)pyrimidin-4-yl)-3,4-dihydrothieno[2,3-f][1,4]thiazepin-5(2H)-one 1,1-dioxide]	≤ 5 nM
C[C@@H]1CN(c2ccc(Nc3ncc(C(F)(F)F)c(-c4cc5c(s4)C(=O)N(C4COC4)CCS5(=O)=O)n3)c(C3CC3)c2)C[C@H](C)N1C [Example 357, 7-(2-((2-cyclopropyl-4-((3S,5R)-3,4,5-trimethylpiperazin-1-yl)phenyl)amino)-5-(trifluoromethyl)pyrimidin-4-yl)-4-(oxetan-3-yl)-3,4-dihydrothieno[2,3-f][1,4]thiazepin-5(2H)-one 1,1-dioxide]	≤ 5 nM
O=C1c2sc(-c3nc(Nc4ccc(N5CCN[C@@H](CO)C5)cc4C4CC4)ncc3C(F)(F)F)cc2S(=O)(=O)CCN1C1COC1 [Example 358, (R)-7-(2-((2-cyclopropyl-4-(3-(hydroxymethyl)piperazin-1-yl)phenyl)amino)-5-(trifluoromethyl)pyrimidin-4-yl)-4-(oxetan-3-yl)-3,4-dihydrothieno[2,3-f][1,4]thiazepin-5(2H)-one 1,1-dioxide]	≤ 5 nM
CCc1cc(N2CCN[C@H](C)C2)ccc1Nc1ncc(C(F)(F)F)c(-c2cc3c(s2)C(=O)N(C2CC2)CCS3(=O)=O)n1 [Example 359, (R)-4-cyclopropyl-7-(2-((2-ethyl-4-(3-methylpiperazin-1-yl)phenyl)amino)-5-(trifluoromethyl)pyrimidin-4-yl)-3,4-dihydrothieno[2,3-f][1,4]thiazepin-5(2H)-one 1,1-dioxide]	≤ 5 nM
CCc1cc(N2CCN(C)[C@H](C)C2)ccc1Nc1ncc(C(F)(F)F)c(-c2cc3c(s2)C(=O)N(C2CC2)CCS3(=O)=O)n1 [Example 360, (R)-4-cyclopropyl-7-(2-((4-(3,4-dimethylpiperazin-1-yl)-2-ethylphenyl)amino)-5-(trifluoromethyl)pyrimidin-4-yl)-3,4-dihydrothieno[2,3-f][1,4]thiazepin-5(2H)-one 1,1-dioxide]	≤ 5 nM
CCc1cc(N2CCN(C)[C@@H](C)C2)ccc1Nc1ncc(C(F)(F)F)c(-c2cc3c(s2)C(=O)N(C2CC2)CCS3(=O)=O)n1 [Example 361, (S)-4-cyclopropyl-7-(2-((4-(3,4-dimethylpiperazin-1-yl)-2-ethylphenyl)amino)-5-(trifluoromethyl)pyrimidin-4-yl)-3,4-dihydrothieno[2,3-f][1,4]thiazepin-5(2H)-one 1,1-dioxide]	≤ 5 nM
